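Cells were grown in 96-well plates and exposed to each compound for 48 hours at five concentrations; endpoints were interpolated linearly between bracketing concentrations, or set to the highest concentration if not reached. At the GI50, growth is halved. Definition used: TGI = concentration required for complete inhibition of growth.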 Where a SMILES comes first, the peptide text is derived from it. [ ]: non-standard residue; d: D form. The star is where a group is joined. ξ: configuration not given here. Propanoyl(3-(4-MeO-Ph)) = COc1ccc(CCC(=O)*)cc1; Thr(3ξ) = CC(O)[C@H](N)C(=O)O; dNMeL = CN[C@H](CC(C)C)C(=O)O; OBn = c1ccc(CO*)cc1; ξLac = CC(O)C(=O)O

Holding throughout (experiment): NCI tumour cell line growth inhibition, 48 h
Test [1] has as its system A549 NSCLC.
The subject of test [2] is ACHN renal.
Test [3] relates to EKVX NSCLC.
Test [4] deals with HOP-62 NSCLC.
Test [5] concerns HOP-92 NSCLC.
For test [6], the system named is NCI-H23 lung.
Test [7] has as its system SF-268 CNS.
Test [8] has as its system SF-539 CNS.
For test [9], the system named is SK-OV-3 ovarian.
For test [10], the system named is SNB-19 CNS.

As to `N#C/C(=C/C=C/c1ccccc1)S(=O)c1ccccc1` (stereo not drawn), the GI50 was 2.17 µM in test [1]; 0.2 µM in test [2]; 0.899 µM in [3]; 1.29 µM in test [4]; 0.319 µM in test [5]; 0.461 µM in test [6]. The GI50 is 0.392 µM in [7], 0.267 µM in [8], 2.5 µM in test [9] and 0.638 µM in [10]. The TGI in [1] came out at 11.3 µM; in test [2] it was 0.462 µM; in test [3], 2.46 µM; in test [4], 5.36 µM; in test [5], 1.03 µM; in test [6], 2.31 µM. The TGI in [7] amounted to 1.94 µM; in test [8], 1.07 µM; in test [9], 10.9 µM; in test [10] it was 2.58 µM.

With `O=C1c2cccc3cc([N+](=O)[O-])cc(c23)C(=O)N1CCN1CCCC1`, the GI50 in [1] is 0.242 µM; in test [2] it was 0.193 µM; in [3], 1.47 µM; in [4], 0.312 µM; in test [5], 0.355 µM; in test [6] it was 0.466 µM. Further, the GI50 in test [7] is 0.601 µM; in test [8], 0.487 µM; in test [9], 0.252 µM; in test [10], 0.35 µM. Also, the TGI was 1.69 µM in [1]; 0.706 µM in test [2]; 5.7 µM in test [3]; 1.7 µM in test [4]; 2.79 µM in [5]; 4.3 µM in test [6]. For the same compound, the TGI in test [7] amounted to 4.27 µM; in [8], 2.04 µM; in test [9], 1.11 µM; in [10] it was 2.42 µM.

Regarding `CC1OC(O[C@H]2/C=C/C=C/C=C/C=C/C=C/C=C/C=C/[C@H](C)[C@@H](O)[C@@H](C)[C@H](C)OC(=O)C[C@H](O)C[C@H](O)CC[C@@H](O)[C@H](O)C[C@H](O)C[C@]3(O)C[C@H](O)[C@@H](C(=O)O)[C@H](C2)O3)C(O)C(N)C1O` (stereo partly drawn), the GI50 in test [1] was 9.72 µM; in test [2] it was 6.47 µM; in test [3], 11.1 µM; in test [4] it was 20.5 µM; in test [6], 14.3 µM; in test [7], 25.6 µM. Besides, the GI50 in [8] is 19.3 µM; in test [10], 37.8 µM. For the same compound, the TGI was 34.9 µM in test [1]; 20.5 µM in [2]; 27.8 µM in test [3]; 42.2 µM in [4]; 52.9 µM in [5]; 34.5 µM in test [6]. The TGI in test [7] is 60.7 µM; in test [8], 47.3 µM; in test [9], 70.1 µM; in [10], 50.2 µM.

`CC(C)c1cccc(C(C)C)c1N=C(N)C#N`: the TGI in test [1] is more than 61.1 µM; in test [2], more than 100 µM; in [3], more than 100 µM; in test [4] it was more than 100 µM; in [5] it was more than 100 µM; in test [6], more than 100 µM. Also, the TGI in test [7] is more than 100 µM; in test [8], 50 µM; in test [9] it was more than 100 µM; in test [10], more than 100 µM.

In the case of `CC(C(=O)c1ccccc1)C1(O)C(=O)Nc2ccccc21` (stereo not drawn), the TGI in test [1], in test [2], in test [3], in test [4], in test [5] and in test [6] was more than 100 µM in each case. Besides, the TGI in [7], in test [8], in test [9] and in test [10] was more than 100 µM throughout.

With `CC1=C(C(=O)NCC(C)O)CC(C(=O)NCC(C)O)=C(C)N1` (stereo not drawn), the TGI in test [1], in [2], in test [3], in test [4], in test [5] and in [6] was more than 100 µM throughout. Moreover, the TGI in [7], in test [8], in [9] and in [10] was more than 100 µM each time.

In the case of `CN(C)CCNC1=CC(=O)c2c(O)ccc(O)c2C1=O`, the TGI was 27.3 µM in test [1]; 25.8 µM in test [2]; 25.6 µM in test [3]; 30.3 µM in test [4]; 27.8 µM in test [5]; 18.7 µM in [6]. Also, the TGI was 28.1 µM in test [7], 20.6 µM in test [8], 83.1 µM in test [9] and 31.6 µM in [10].

In the case of `CCC(O)(c1ccc(OC)cc1)C(c1ccc(OCc2ccccc2)cc1)c1ccc(OCc2ccccc2)cc1` (stereo not drawn), the TGI in test [1], in test [2], in test [3], in test [4], in [5] and in [6] was more than 100 µM each time. The TGI in [7], in [8], in test [9] and in test [10] was more than 100 µM each time.

`C=C1SC(=Nc2ccccc2Cl)N(C(=O)c2sc3ccccc3c2Cl)C1(C)C`: the GI50 in test [1] is 4.5 µM; in test [2] it was 3.24 µM; in test [3] it was 2.38 µM; in test [4], 10.5 µM; in test [5] it was 3.47 µM; in test [6] it was 4.41 µM. Moreover, the GI50 in [7] is 12.9 µM; in [8] it was 14 µM; in test [9], 7.94 µM; in test [10], 3.64 µM. In addition, the TGI in test [1] was more than 100 µM; in [2], more than 46 µM; in test [3], 18.2 µM; in test [4], more than 51.1 µM; in [5] it was more than 22.8 µM; in test [6] it was more than 100 µM. Besides, the TGI in test [7] was more than 100 µM; in test [8], more than 100 µM; in test [9], 80.2 µM; in test [10], more than 100 µM.

On to `CCC(c1ccc(OC)cc1)C(CC)c1ccc(O)c(CN2CCCC2)c1` (stereo not drawn), for which the GI50 in test [1] was 3.73 µM; in test [2] it was 4.57 µM; in test [3] it was 5.07 µM; in [4], 3.46 µM; in [5], 1.57 µM; in test [6] it was 3.66 µM. Besides, the GI50 was 5.6 µM in test [7], 4.16 µM in [8], 3.68 µM in test [9] and 4.39 µM in test [10]. The TGI was 13.8 µM in [1]; 18.5 µM in test [2]; 19.3 µM in [3]; 13.4 µM in test [4]; 3.58 µM in [5]; 15.6 µM in [6]. For the same compound, the TGI was determined as 21.5 µM in [7], 15.6 µM in test [8], 12.9 µM in [9] and 17.2 µM in test [10].

In the case of `O=C(Nc1ccc(Cl)cc1)c1cc2cc(F)ccc2cc1O`, the GI50 in test [1] is 2.5 µM; in test [2] it was 1.67 µM; in test [3], 2.62 µM; in [4] it was 2.01 µM; in test [5] it was 0.288 µM; in test [6] it was 0.929 µM. Further, the GI50 in [7] was 2.46 µM; in test [8], 1.26 µM; in test [9], 1.08 µM; in test [10], 2.2 µM. Also, the TGI in [1] is more than 100 µM; in test [2], 7.07 µM; in test [3], 22.3 µM; in [4], 7.56 µM; in [5], 0.809 µM; in test [6], 7.33 µM. For the same compound, the TGI in [7] is more than 100 µM; in [8], 14.3 µM; in test [9] it was 5.76 µM; in [10], more than 100 µM.

For `O=S(=O)(NCCCNc1cc(-c2cn(-c3ccccc3)nc2-c2cccc(O)c2)ccn1)c1cccc2ccccc12`, the GI50 in test [1] is 3.5 µM; in test [2], 3.7 µM; in [3], 3.99 µM; in test [4], 2.45 µM; in [5] it was 1.41 µM; in test [6] it was 2.89 µM. Besides, the GI50 is 3.02 µM in test [7], 2.43 µM in test [8], 4.83 µM in test [9] and 5.1 µM in [10]. For the same compound, the TGI in test [1] is more than 100 µM; in test [2] it was more than 100 µM; in test [3], more than 100 µM; in test [4] it was 12.9 µM; in [5], 7.28 µM; in [6], more than 100 µM. The TGI is 40.8 µM in test [7], 20.2 µM in test [8], more than 100 µM in test [9] and more than 100 µM in test [10].

Consider `CC(C)NC(=O)OCc1c(COC(=O)NC(C)C)c(-c2ccc[n+](COC(=O)C3CC3)c2)n2c1CCC2`, for which the TGI in [1] was more than 100 µM; in test [2], 82.7 µM; in test [3], more than 100 µM; in [4] it was more than 100 µM; in test [5], more than 100 µM; in [6] it was more than 100 µM. The TGI in [7], in test [8], in test [9] and in [10] was more than 100 µM throughout.

Regarding `COc1ccc(CCC(=O)OC(C)[C@H](NC(=O)[C@@H](CC(C)C)N(C)C(=O)[C@@H]2CCCN2C(=O)C(C)O)C(=O)OCc2ccccc2)cc1` (stereo partly drawn) (H-[ξLac]P[dNMeL][Thr(3ξ)](Propanoyl(3-(4-MeO-Ph)))-OBn), the TGI was more than 100 µM in test [1]; more than 100 µM in test [2]; more than 100 µM in test [3]; more than 100 µM in test [4]; 41.6 µM in test [5]; more than 100 µM in [6]. Further, the TGI in test [7] was 99.5 µM; in [8] it was 46.2 µM; in test [9] it was more than 100 µM; in [10], more than 100 µM.

As to `CC1=C(/C=C/C2=CC(=C\C(=O)O)/CC(C3=C(C)CCCC3(C)C)C2)C(C)(C)CCC1` (stereo not drawn), the TGI in [1] is 19.6 µM; in test [2] it was 22.2 µM; in [3], 23.4 µM; in [4] it was 27 µM; in test [5], 23.7 µM; in [6], 27.6 µM. The TGI stood at 36.1 µM in test [7], 30.6 µM in test [8], 27.7 µM in test [9] and 27.7 µM in test [10].

Take `C#Cc1cccc(Nc2ncnc3ccc(-c4cnc(Cl)c(NS(C)(=O)=O)c4)cc23)c1`: the GI50 in test [1] is 0.725 µM; in test [2] it was 0.442 µM; in test [3], 0.253 µM; in [4] it was 0.292 µM; in test [5] it was 0.078 µM; in [6] it was 0.385 µM. Besides, the GI50 is 0.155 µM in [7], 0.302 µM in test [8], 0.206 µM in test [9] and 0.374 µM in [10]. Also, the TGI in [1] was 4.83 µM; in [2], more than 100 µM; in test [3] it was 1.87 µM; in test [4], 10.7 µM; in [5], 0.835 µM; in [6] it was 8.03 µM. Also, the TGI in test [7] came out at 1.67 µM; in [8], 1.68 µM; in [9] it was 1.38 µM; in [10], 5.7 µM.

In the case of `CN(C)CCCN=c1cc2c(=O)n(CCCN(C)C)c(=O)c3c(NCCCN(C)C)cc4c(O)n(CCCN(C)C)c(=O)c1c4c3-2`, the GI50 in test [1] is 0.525 µM; in test [2], 0.736 µM; in test [3], 3.06 µM; in test [4], 0.657 µM; in [5] it was 1.81 µM; in test [6] it was 5.39 µM. Moreover, the GI50 in test [7] is 0.964 µM; in [8], 2.33 µM; in [9], 1.88 µM; in test [10] it was 1.51 µM. Also, the TGI came to 2.63 µM in test [1]; 12.4 µM in test [2]; 21.3 µM in [3]; 5.19 µM in test [4]; 14.2 µM in test [5]; 25.5 µM in [6]. The TGI in [7] was found to be 9.33 µM; in test [8] it was 11 µM; in [9] it was 6.93 µM; in test [10], 19.7 µM.

As to `c1ccc2c(c1)nnn2CNc1ccc(N2CCOCC2)cc1`, the TGI in test [1], in [2], in test [3], in [4], in [5] and in test [6] was more than 100 µM throughout. The TGI in test [7], in [8], in test [9] and in test [10] was more than 100 µM in each case.

The values above are taken from PubChem BioAssay (NCI).
